For assay [1], the system named is SMMC-7721. Briefly: Antiproliferative activity against human SMMC7721 cells after 48 hrs by MTT assay. The format is functional, cell-based. Particulars: SMMC-7721, 48 h. Background: Formazan colour is commonly taken as a measure of viable cells.
The test system of assay [2] is HCT-116. Briefly: Antiproliferative activity against human HCT116 cells after 48 hrs by MTT assay. The format is functional, cell-based. The note with it: HCT-116, 48 h.
Assay [3] relates to HepG2. Briefly: Antiproliferative activity against human HepG2 cells after 48 hrs by MTT assay. It counts as functional, cell-based. Particulars: HepG2, 48 h.
The subject of assay [4] is K562. The experiment in a line: Antiproliferative activity against human K562 cells after 48 hrs by MTT assay. It counts as functional, cell-based. The note with it: K562, 48 h.
The test system of assay [5] is H22. Briefly: Antitumor activity against mouse H22 cells implanted in Swiss mouse assessed as tumor growth inhibition at 5 mg/kg/day, iv administered via tail vein for 7 days relative to control. The format is functional. The note with it: 168 h, read-out: TGI.
The subject of assay [6] is H22. The experiment in a line: Antitumor activity against mouse H22 cells implanted in Swiss mouse assessed as inhibition of lung metastasis at 5 mg/kg/day, iv administered via tail vein for 7 days relative to control. The format is functional. Particulars: 168 h.

As to `O=C1c2cccc3cccc(c23)C(=O)N1CCCCNCCCCNCCCCNC1CC1`, the IC50 in assay [1] worked out at 12 µM; in assay [2], 15.1 µM; in assay [3], 9.68 µM; in assay [4] it was 8.55 µM.
Turning to `CN(C)CCN1C(=O)c2cccc3cc(N)cc(c23)C1=O` [AMONAFIDE], the results for the inhibition in vivo at 5 mg/kg/day in assay [5] and in assay [6] were 45.1% and 41.2%, respectively. The values for the IC50 in assay [2] and in assay [4] were 6.86 µM and 10.1 µM, respectively.
As for `CCCNCCCNCCCCNCCCN1C(=O)c2cccc3cccc(c23)C1=O`, the IC50 in assay [1] came out at 6.6 µM; in assay [2] it was 5.2 µM; in assay [3], 7.66 µM; in assay [4], 7.71 µM.

Usually IC50 stands for the concentration at which inhibition is half-maximal.

The values above are taken from ChEMBL document CHEMBL4138170, “Synthesis and biological evaluation of novel alkylated polyamine analogues as potential anticancer agents” (Eur J Med Chem, 2018).
